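All cell lines were grown in 96-well plates and treated with compound for 48 hours. Here, GI50 denotes the concentration required for 50% inhibition of growth.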 The source made the active and inactive calls. Rule as the data show it: active = GI50 up to about 1.1 µM and inactive = higher.
Tests used:
Test in all cases: NCI anticancer screen, dose series, 48 h
[1] = test system: OVCAR-5
[2] = test system: M14
[3] = test system: SK-MEL-28
[4] = test system: SK-MEL-5
[5] = test system: MDA-MB-435
[6] = test system: SR
[7] = test system: SF-539
[8] = test system: HCT-15
[9] = test system: SF-268
[10] = test system: IGROV-1
[11] = test system: HOP-62
[12] = test system: TK-10
[13] = test system: HT-29
[14] = test system: UO-31
[15] = test system: SNB-19
[16] = test system: OVCAR-8
[17] = test system: Hs-578T
[18] = test system: NCI-H226
[19] = test system: K562
[20] = test system: MDA-N

Compound	GI50 [1]	GI50 [2]	GI50 [3]	GI50 [4]	GI50 [5]	GI50 [6]	GI50 [7]	GI50 [8] [µM]	GI50 [9]	GI50 [10]	GI50 [11]	GI50 [12]	GI50 [13]	GI50 [14]	GI50 [15]	GI50 [16]	GI50 [17]	GI50 [18]	GI50 [19]	GI50 [20]
COC1=CCC2=C(CCN(C(=O)C3CC3)C2Cc2ccc(OC)c(O)c2)C1 (stereo not given)	> 100 µM (inactive)	45 µM (inactive)	31.8 µM (inactive)	28.6 µM (inactive)	23.9 µM (inactive)	4.8 µM (inactive)	67 µM (inactive)	22.1	51.1 µM (inactive)	52 µM (inactive)	61.8 µM (inactive)	67.1 µM (inactive)	45.9 µM (inactive)	> 100 µM (inactive)	> 100 µM (inactive)	34 µM (inactive)	69.2 µM (inactive)	89.3 µM (inactive)	25.8 µM (inactive)	
N#Cc1c(N)nc(S)c(C#N)c1-c1ccccc1	> 100 µM (inactive)		> 100 µM (inactive)	> 100 µM (inactive)		> 100 µM (inactive)	> 100 µM (inactive)	> 100	> 100 µM (inactive)	> 100 µM (inactive)	> 100 µM (inactive)	> 100 µM (inactive)	> 100 µM (inactive)	52.8 µM (inactive)	> 100 µM (inactive)	> 100 µM (inactive)	> 100 µM (inactive)	> 100 µM (inactive)	> 100 µM (inactive)	> 100 µM (inactive)
CCON1CC(C(=O)OC)=C(O)C1=O	> 100 µM (inactive)	> 100 µM (inactive)	> 100 µM (inactive)	> 100 µM (inactive)	> 100 µM (inactive)			> 100	> 100 µM (inactive)	> 100 µM (inactive)	> 100 µM (inactive)	> 100 µM (inactive)	> 100 µM (inactive)	> 100 µM (inactive)	> 100 µM (inactive)	> 100 µM (inactive)	> 100 µM (inactive)		> 100 µM (inactive)	> 100 µM (inactive)
N#Cc1ccccc1OCCOc1ccccc1C#N	> 100 µM (inactive)	> 100 µM (inactive)	> 100 µM (inactive)	> 100 µM (inactive)	> 100 µM (inactive)	> 100 µM (inactive)	26.1 µM (inactive)	> 100	> 100 µM (inactive)	> 100 µM (inactive)	> 100 µM (inactive)	> 100 µM (inactive)	> 100 µM (inactive)	> 100 µM (inactive)	> 100 µM (inactive)	> 100 µM (inactive)	> 100 µM (inactive)	> 100 µM (inactive)	20.3 µM (inactive)	
Oc1ccc2ccccc2c1NCn1nc(CCCCCCCCc2nn(CNc3c(O)ccc4ccccc34)c(=S)o2)oc1=S	> 100 µM (inactive)	44.8 µM (inactive)	> 100 µM (inactive)	44.5 µM (inactive)	38.7 µM (inactive)			43.1	> 100 µM (inactive)	6.7 µM (inactive)	> 100 µM (inactive)	> 100 µM (inactive)	25.5 µM (inactive)	> 100 µM (inactive)	> 100 µM (inactive)			> 100 µM (inactive)	> 100 µM (inactive)	37.6 µM (inactive)
COc1ccc(/C(Cl)=C(\C#N)c2ccc(OC)c(OC)c2)cc1OC	> 100 µM (inactive)	> 100 µM (inactive)		46.8 µM (inactive)	87.7 µM (inactive)	40.2 µM (inactive)	> 100 µM (inactive)	44.3		> 100 µM (inactive)	43.7 µM (inactive)	> 100 µM (inactive)	38.6 µM (inactive)	59 µM (inactive)	> 100 µM (inactive)			77.4 µM (inactive)	48.9 µM (inactive)	> 100 µM (inactive)
CC(=O)c1cccc(Nc2nc3ccc(Cl)cc3c3[nH]c4ccccc4c23)c1	5.79 µM (inactive)	11 µM (inactive)		1.44 µM (inactive)	7.26 µM (inactive)		5.28 µM (inactive)	6.08	3.99 µM (inactive)	4.16 µM (inactive)	4.17 µM (inactive)	4.81 µM (inactive)	6.21 µM (inactive)	6.07 µM (inactive)	10.5 µM (inactive)	5.12 µM (inactive)	9.35 µM (inactive)		1.41 µM (inactive)	7.74 µM (inactive)
COc1ccccc1C(=O)c1c(N2CCCCC2)c(=O)c1=O	> 100 µM (inactive)	> 100 µM (inactive)	> 100 µM (inactive)	> 100 µM (inactive)	> 100 µM (inactive)		> 100 µM (inactive)	> 100	> 100 µM (inactive)	> 100 µM (inactive)	> 100 µM (inactive)	> 100 µM (inactive)	> 100 µM (inactive)	> 100 µM (inactive)	> 100 µM (inactive)	> 100 µM (inactive)		> 100 µM (inactive)	> 100 µM (inactive)	> 100 µM (inactive)
CC(=O)c1c(-c2ccccc2)c(-c2ccc(OCCN(C)C)cc2)n2ccccc12	47.8 µM (inactive)	16.7 µM (inactive)	15.2 µM (inactive)	10.3 µM (inactive)	17.7 µM (inactive)		13.9 µM (inactive)	10.7	16.8 µM (inactive)	16.6 µM (inactive)		17 µM (inactive)	3.44 µM (inactive)	16.7 µM (inactive)	19.3 µM (inactive)	14.9 µM (inactive)	16.3 µM (inactive)	15.2 µM (inactive)	13.4 µM (inactive)	15.8 µM (inactive)
CN(C)c1ccc(/C=c2/c3ccccc3n3c2cc(NC(=O)NCCC[N+](C)(C)C)[n+]3C)cc1	> 100 µM (inactive)	72.8 µM (inactive)	> 100 µM (inactive)	47.6 µM (inactive)	> 100 µM (inactive)	75.9 µM (inactive)	53.1 µM (inactive)	> 100	> 100 µM (inactive)	16.4 µM (inactive)	> 100 µM (inactive)	> 100 µM (inactive)	> 100 µM (inactive)	> 100 µM (inactive)	64.1 µM (inactive)	38.9 µM (inactive)	> 100 µM (inactive)		40.6 µM (inactive)	
CCN(C(=S)N[C@H](C(=O)N[C@@H](C)C(=O)OC)C(C)C)c1ccccc1	> 100 µM (inactive)	53.2 µM (inactive)	> 100 µM (inactive)	71.4 µM (inactive)	64 µM (inactive)	18.9 µM (inactive)	28 µM (inactive)	63.1		25.8 µM (inactive)	91.6 µM (inactive)	88.5 µM (inactive)	31.5 µM (inactive)	60.8 µM (inactive)	> 100 µM (inactive)	21.8 µM (inactive)		> 100 µM (inactive)	22.7 µM (inactive)	91.2 µM (inactive)
C/C1=C\CC[C@@]2(C)O[C@@H]2C[C@@H]2[C@H](C/C(C)=C/CC1)OC(=O)C21CC1	> 100 µM (inactive)	> 100 µM (inactive)	> 100 µM (inactive)	93.5 µM (inactive)	41.5 µM (inactive)	12.7 µM (inactive)	> 100 µM (inactive)	27.7	> 100 µM (inactive)	23.3 µM (inactive)	> 100 µM (inactive)	> 100 µM (inactive)	> 100 µM (inactive)	92.3 µM (inactive)	> 100 µM (inactive)	> 100 µM (inactive)			21 µM (inactive)	91.4 µM (inactive)
N#Cc1c(N2CCOCC2)ncn(-c2ccc(Cl)cc2)c1=O	> 100 µM (inactive)	> 100 µM (inactive)	> 100 µM (inactive)	> 100 µM (inactive)	> 100 µM (inactive)	> 100 µM (inactive)	> 100 µM (inactive)	> 100		> 100 µM (inactive)	> 100 µM (inactive)			> 100 µM (inactive)	> 100 µM (inactive)	> 100 µM (inactive)		> 100 µM (inactive)	> 100 µM (inactive)	> 100 µM (inactive)
CCOC(=O)c1c(N)nn2c1cc1cccccc12	59.8 µM (inactive)	42.1 µM (inactive)	29.9 µM (inactive)	26.1 µM (inactive)	31.8 µM (inactive)		51.5 µM (inactive)	32.3	24.5 µM (inactive)	27.9 µM (inactive)	29.8 µM (inactive)	19.5 µM (inactive)	36.2 µM (inactive)		40.7 µM (inactive)	24.8 µM (inactive)	29.9 µM (inactive)			41.5 µM (inactive)
CC1=NN(c2nc(N)nc(CO)n2)C(C)(C)C1	> 100 µM (inactive)	> 100 µM (inactive)	> 100 µM (inactive)	> 100 µM (inactive)	> 100 µM (inactive)		> 100 µM (inactive)	> 100	> 100 µM (inactive)	> 100 µM (inactive)	> 100 µM (inactive)	> 100 µM (inactive)	> 100 µM (inactive)	> 100 µM (inactive)	> 100 µM (inactive)	> 100 µM (inactive)	> 100 µM (inactive)	> 100 µM (inactive)	> 100 µM (inactive)	
N=C(N)SCCSC(=N)N	> 100 µM (inactive)	> 100 µM (inactive)	> 100 µM (inactive)	> 100 µM (inactive)	> 100 µM (inactive)			> 100	> 100 µM (inactive)	> 100 µM (inactive)	> 100 µM (inactive)	> 100 µM (inactive)	> 100 µM (inactive)	> 100 µM (inactive)	> 100 µM (inactive)	> 100 µM (inactive)	> 100 µM (inactive)	> 100 µM (inactive)	> 100 µM (inactive)	> 100 µM (inactive)

Reference: ChEMBL document CHEMBL1201862, “PubChem BioAssay data set” (2004)
